Biological target: human sphingosine-1-phosphate receptor 1 (S1P1) (Homo sapiens, UniProt P21453)
Test: Inhibition of cAMP production (HTRF cAMP HiRange), S1P1 CHO-K1 cells
Type: cell-based
Details: inhibition of cAMP production, S1P1; read-out: hS1P1 CAMP pEC50 (converted)
How it was run: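 Intracellular cAMP changes read by TR-FRET (HTRF HiRange, 1 h room temperature) after 30 min compound exposure at 37 °C. Cells: overnight-plated CHO-K1 stably expressing tagged human S1P1 with EA-β-arrestin2. Responses normalized to fingolimod.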

Sequence of human sphingosine-1-phosphate receptor 1 (S1P1) (P21453 whole entry): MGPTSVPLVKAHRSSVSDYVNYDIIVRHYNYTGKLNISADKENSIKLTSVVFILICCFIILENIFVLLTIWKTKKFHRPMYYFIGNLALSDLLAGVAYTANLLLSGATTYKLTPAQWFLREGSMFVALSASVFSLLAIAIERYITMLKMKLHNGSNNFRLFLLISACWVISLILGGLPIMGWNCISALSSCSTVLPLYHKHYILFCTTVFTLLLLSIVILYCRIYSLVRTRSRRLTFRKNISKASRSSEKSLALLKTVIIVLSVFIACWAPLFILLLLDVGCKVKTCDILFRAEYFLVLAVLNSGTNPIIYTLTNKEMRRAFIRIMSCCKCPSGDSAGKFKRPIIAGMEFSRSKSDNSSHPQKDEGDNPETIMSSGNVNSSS

Compound	EC50
CC(C)n1nnc2cc(-c3nc4ccncc4o3)ccc21 [Compound 503, 2-(1-isopropyl-1H-benzo[d][1,2,3]triazol-5-yl)oxazolo[5,4-c]pyridine]	> 316 nM
N#Cc1cc(-c2nnc(-c3ccc4[nH]cnc4c3)o2)ccc1NC1CC1 [Compound 598, 5-[5-(1H-1,3-benzo-diazol-5-yl)-1,3,4-oxadiazol-2-yl]-2-(cyclopropyl-amino)benzonitrile]	< 316 nM
Cc1ccccc1-c1coc(-c2ccc3c(c2)nnn3C(C)C)n1 [Compound 433, 5-[4-(2-methylphenyl)-1,3-oxazol-2-yl]-1-(propan-2-yl)-1H-1,2,3-benzotriazole]	< 316 nM
Cc1cccc2oc(-c3ccc4c(c3)nnn4C(C)C)nc12 [Compound 418, 2-(1-isopropyl-1H-benzo[d][1,2,3]triazol-5-yl)-4-methyl-benzo[d]oxazole]	< 316 nM
CC(C)n1nnc2cc(-c3nc4c(ccc5sccc54)o3)ccc21 [Compound 457, 4-[1-(propan-2-yl)-1H-1,2,3-benzotriazol-5-yl]-5-oxa-10-thia-3-azatricyclo[7.3.0.0^2,6] dodeca-1(9),2(6),3,7,11-pentaene]	< 316 nM
COc1ccc2nc(-c3ccc4c(c3)nnn4CC(C)C)oc2c1 [Compound 452, 2-(1-isobutyl-1H-benzo[d][1,2,3]triazol-5-yl)-6-methoxy-benzo[d]oxazole]	> 316 nM

Same assay, conditions: inhibition of cAMP production; potency; read-out: hS1P1 CAMP pEC50 (converted)

Compound	EC50
Cc1ccccc1C(C)c1noc(-c2ccc3c(c2)nnn3C(C)C)n1 (stereo not drawn) [Compound 172, 5-{3-[1-(2-methyl-phenyl)ethyl]-1,2,4-oxadiazol-5-yl}-1-(propan-2-yl)-1H-1,2,3-benzotriazole]	> 316 nM
CC(=O)Nc1ccc(-c2noc(-c3ccc(NC(C)C)c(C#N)c3)n2)cc1 [Compound 316, N-(4-(5-(3-cyano-4-(isopropylamino)phenyl)-1,2,4-oxadiazol-3-yl)phenyl)acetamide]	< 316 nM
c1ccc(Oc2ccc(-c3noc(-c4ccc5c(c4)nnn5C4CC4)n3)cc2)cc1 [Compound 285, 1-cyclopropyl-5-[3-(4-phenoxyphenyl)-1,2,4-oxadiazol-5-yl]-1H-1,2,3-benzotriazole]	> 316 nM
COc1ccc(-c2noc(-c3ccc4c(c3)nnn4C(C)C)n2)cc1OC [Compound 230, 3-(3,4-dimethoxy-phenyl)-5-(1-isopropyl-1H-benzo[d][1,2,3]triazol-5-yl)-1,2,4-oxadiazole]	> 316 nM
Cc1ncccc1-c1nc(-c2ccc3c(c2)nnn3C(C)C)no1 [Compound 194, 3-(1-isopropyl-1H-benzo[d][1,2,3]triazol-5-yl)-5-(2-methyl-pyridin-3-yl)-1,2,4-oxadiazole]	> 316 nM
COc1cccc(F)c1-c1noc(-c2ccc3c(c2)nnn3C(C)C)n1 [Compound 260, 3-(2-fluoro-6-methoxy-phenyl)-5-(1-isopropylbenzo-triazol-5-yl)-1,2,4-oxadiazole]	> 316 nM
Cc1cc(-c2nc(-c3ccc4c(c3)nnn4C(C)C)no2)ccn1 [Compound 86, 3-(1-isopropyl-1H-benzo[d][1,2,3]triazol-5-yl)-5-(2-methyl-pyridin-4-yl)-1,2,4-oxadiazole]	> 316 nM
COc1ccc(-c2coc(-c3ccc4c(c3)nnn4C(C)C)n2)cc1 [Compound 250, 5-[4-(4-methoxy-phenyl)-1,3-oxazol-2-yl]-1-(propan-2-yl)-1H-1,2,3-benzotriazole]	> 316 nM
CSc1ccc(-c2nc(-c3ccc4c(c3)nnn4C3CCCC3)no2)cc1 [Compound 237, 3-(1-cyclopentyl-1H-benzo[d][1,2,3]triazol-5-yl)-5-(4-(methyl-thio)phenyl)-1,2,4-oxadiazole]	> 316 nM
FC(F)(F)Oc1ccccc1-c1nc(-c2ccc3c(c2)nnn3C2CCCC2)no1 [Compound 84, 3-(1-cyclopentyl-1H-benzo[d][1,2,3]triazol-5-yl)-5-(2-(trifluoro-methoxy)phenyl)-1,2,4-oxadiazole]	> 316 nM
COc1ccc(-c2nc(-c3ccc4c(c3)nnn4C3CCCC3)no2)cc1OC [Compound 275, 3-(1-cyclopentyl-1H-benzo[d][1,2,3]triazol-5-yl)-5-(3,4-dimethoxyphenyl)-1,2,4-oxadiazole]	> 316 nM
Cc1ccccc1-c1noc(-c2ccc3c(c2)nnn3CC(C)(C)O)n1 [Compound 139, 2-methyl-1-{5-[3-(2-methylphenyl)-1,2,4-oxadiazol-5-yl]-1H-1,2,3-benzotriazol-1-yl}propan-2-ol]	< 316 nM
CC(C)n1nnc2cc(-c3noc(-c4ccccc4F)n3)ccc21 [Compound 307, 5-(2-fluorophenyl)-3-(1-isopropyl-1H-benzo[d][1,2,3]triazol-5-yl)-1,2,4-oxadiazole]	< 316 nM
CCCn1nnc2cc(-c3nc(-c4ccncc4)no3)ccc21 [Compound 205, 1-propyl-5-[3-(pyridin-4-yl)-1,2,4-oxadiazol-5-yl]-1H-1,2,3-benzotriazole]	> 316 nM
CCC1(CC)CC(=O)c2cc(-c3nc(-c4ccccc4O)no3)ccc2O1 [Compound 187, 2,2-diethyl-6-[3-(2-hydroxyphenyl)-1,2,4-oxadiazol-5-yl]chroman-4-one]	> 316 nM
CC(C)n1ncc2cc(-c3nc(-c4cccc5c4OCO5)no3)ccc21 [Compound 336, 3-(benzo[d][1,3]dioxol-4-yl)-5-(1-isopropyl-1H-indazol-5-yl)-1,2,4-oxadiazole]	< 316 nM
C=CCNc1ccc(-c2nc(-c3ccc4c(c3)nnn4C(C)C)no2)cc1C#N [Compound 150, 2-(allylamino)-5-(3-(1-isopropyl-1H-benzo[d][1,2,3]triazol-5-yl)-1,2,4-oxadiazol-5-yl)benzonitrile]	< 316 nM
CC1(C)CC(=O)c2cc(-c3nc(-c4cccnc4)no3)ccc2O1 [Compound 274, 2,2-dimethyl-6-[3-(pyridin-3-yl)-1,2,4-oxadiazol-5-yl]-3,4-dihydro-2H-1-benzopyran-4-one]	> 316 nM

Compound	EC50
CC(C)n1nnc2cc(-c3noc(C4CCCCC4)n3)ccc21 [Compound 127, 5-(5-cyclohexyl-1,2,4-oxadiazol-3-yl)-1-(propan-2-yl)-1H-1,2,3-benzotriazole]	> 316 nM
CC(C)n1nnc2cc(-c3noc(-c4ccc(F)cc4)n3)ccc21 [Compound 255, 5-(4-fluorophenyl)-3-(1-isopropyl-benzotriazol-5-yl)-1,2,4-oxadiazole]	> 316 nM
Cc1ccsc1-c1noc(-c2ccc3c(c2)nnn3CC(C)(C)O)n1 [Compound 140]	< 316 nM
Cc1ccccc1-c1noc(-c2ccc3c(c2)nnn3CC(F)F)n1 [Compound 182, 1-(2,2-difluoroethyl)-5-[3-(2-methylphenyl)-1,2,4-oxadiazol-5-yl]-1H-1,2,3-benzotriazole]	< 316 nM
C=CCNc1ccc(-c2nc(-c3ccc4[nH]ncc4c3)no2)cc1C#N [Compound 141, 5-(3-(1H-indazol-5-yl)-1,2,4-oxadiazol-5-yl)-2-(allyl-amino)benzonitrile]	< 316 nM
CC(C)n1ncc2cc(-c3nc(-c4ccccc4O)no3)ccc21 [Compound 333, 2-(5-(1-isopropyl-1H-indazol-5-yl)-1,2,4-oxadiazol-3-yl)phenol]	< 316 nM
CCC1(CC)CC(=O)c2cc(-c3nc(-c4cccnc4)ns3)ccc2O1 [Compound 309, 2,2-diethyl-6-(3-(pyridin-3-yl)-1,2,4-thiadiazol-5-yl)chroman-4-one]	> 316 nM
COc1cccc(-c2nc(-c3ccc4c(c3)nnn4C(C)C)no2)c1 [Compound 299, 3-(1-isopropylbenzo-triazol-5-yl)-5-(3-methoxyphenyl)-1,2,4-oxadiazole]	> 316 nM
CCC1(CC)CC(=O)c2cc(-c3nc(-c4cccc(OC)c4)no3)ccc2O1 [Compound 71, 2,2-diethyl-6-(3-(3-methoxyphenyl)-1,2,4-oxadiazol-5-yl)chroman-4-one]	> 316 nM
C=CCNc1ccc(-c2nc(-c3ccc4c(c3)CC(=O)N4)no2)cc1C#N [Compound 224, 2-(allylamino)-5-(3-(2-oxoindolin-5-yl)-1,2,4-oxadiazol-5-yl)benzonitrile]	< 316 nM
FC(F)(F)c1cc(-c2noc(-c3ccc4c(c3)nnn4C3CC3)n2)ccc1OCc1ccccc1 [Compound 85, 5-{3-[4-(benzyloxy)-3-(trifluoromethyl)phenyl]-1,2,4-oxadiazol-5-yl}-1-cyclopropyl-1H-1,2,3-benzotriazole]	> 316 nM
O=C1CC2(CCCCC2)Oc2ccc(-c3nc(-c4cccnc4)no3)cc21 [Compound 41, 6-[3-(pyridin-3-yl)-1,2,4-oxadiazol-5-yl]-3,4-dihydrospiro[1-benzopyran-2,1′-cyclohexane]-4-one]	> 316 nM
Cc1ccncc1-c1noc(-c2ccc3nnn(C(C)C)c3c2)n1 [Compound 264, 6-[3-(4-methylpyridin-3-yl)-1,2,4-oxadiazol-5-yl]-1-(propan-2-yl)-1H-1,2,3-benzotriazole]	> 316 nM
Clc1ncccc1-c1noc(-c2ccc3c(c2)nnn3C2CCCC2)n1 [Compound 198, 5-[3-(2-chloro-pyridin-3-yl)-1,2,4-oxadiazol-5-yl]-1-cyclopenty1-1H-1,2,3-benzotriazole]	< 316 nM
c1cc(-c2noc(-c3ccc4c(c3)nnn4C3CCCC3)n2)ccn1 [Compound 174, 1-cyclopentyl-5-[3-(pyridin-4-yl)-1,2,4-oxadiazol-5-yl]-1H-1,2,3-benzotriazole]	< 316 nM
Cc1ccsc1-c1noc(-c2ccc3c(c2)nnn3CC2CC2)n1 [Compound 239, 1-(cyclopropyl-methyl)-5-[3-(3-methylthiophen-2-yl)-1,2,4-oxadiazol-5-yl]-1H-1,2,3-benzotriazole]	> 316 nM
Brc1ccccc1-c1noc(-c2ccc3c(c2)nnn3C2CCOCC2)n1 [Compound 233, 5-[3-(2-bromophenyl)-1,2,4-oxadiazol-5-yl]-1-(oxan-4-yl)-1H-1,2,3-benzotriazole]	> 316 nM
Brc1ccccc1-c1nc(-c2ccc3c(c2)nnn3C2CCCCC2)no1 [Compound 115, 5-(2-bromophenyl)-3-(1-cyclohexyl-1H-benzo[d][1,2,3]triazol-5-yl)-1,2,4-oxadiazole]	< 316 nM
